Reference: patent US20170363637A1, “Method and Kit for Determining Risk of Preterm Birth and/or Birth of Low-Birth-Weight Baby” (HIROSHIMA UNIVERSITY, priority 2014, published 2017)

What was measured:
[1] = system: C57Bl/6J mice infected with P.g. w83 strain; assay: Effect of Gal-3 inhibitor on preterm birth induced by dental infection of P.g. (gestational period); assay type: in vivo, mouse; conditions: 5 mg/kg N-Lac intraperitoneally at gestational ages of 12, 15 and 18 days
Protocol: Effect of a Gal-3 inhibitor, N-acetyllactosamine (N-Lac), on preterm birth induced by dental infection of P.g. was studied.
(§1) 8-wks-old female C57Bl/6J mice were infected with P.g. w83 strain via the pulp chambers of the first molars. After periapical granuloma, which serves as a persistent source of P.g., was established at 6wks post-infection, mating was started (P.g. group). A half of the mice in P.g. group was intraperitoneally administered with 5 mg/kg of N-Lac (Sigma-Aldrich) at the gestational ages of 12, 15 and 18 days (P.g./N-Lac group). Healthy pregnant mice without P.g. infection were used as a control (NC group). The gestational period was compared among the groups. At the gestational age of 17 days the placental tissues were harvested, and inflammatory cell infiltration (MΦ, neutrophils), damage of endothelial cells (CD31), and immunolocalization of factors promoting delivery (TNF-α, COX-2, and Gal-3) were compared among the groups.

[2] = system: placental tissues of P.g.-infected mice; assay: Histological and immunohistochemical observation of placental tissues at gestational age of 17 days; assay type: in vivo, mouse; conditions: placenta at gestational age of 17 days; P.g./N-Lac group vs P.g. group
Protocol: Immunohistochemical staining was performed in a conventional manner. As PMNL markers, MCA771GA (rat anti-neutrophils antibody, purchased from AbD Serotec (Raleigh, N.C., USA), 1:5000), rabbit monoclonal anti-COX-2 antibody (purchased from Cell Signaling Technology (Danvers, Mass., USA), 1:100), goat anti-TNF-α antibody (purchased from Santa Cruz Biotechnology, Inc. (Santa Cruz, Calif., USA), 1:50), and rat anti-galectin-3 antibody (purchased from BioLegend, Inc (San Diego, Calif., USA), 1:500) were used. A high polymer method (Histofine Max-PO; Nichirei Biosciences) was used for immunohistochemical staining of the markers. Specificity of the antibodies was ascertained by substituting PBS/serum for each antibody.
as §1, with “At the gestational age of 17 days the placental tissues were harvested, and inflammatory cell infiltration (MΦ, neutrophils), damage of endothelial cells (CD31), and immunolocalization of factors promoting delivery (TNF-α, COX-2, and Gal-3) were compared among the groups.” left out

HTR-8 cells [3] = assay: Effect of Gal-3 inhibitor on human placenta cell line stimulated with P.g.-LPS (Western-blotting); assay type: cell-based
Protocol: Human trophoblast cell line—HTR-8/Svneo cells were kindly gifted from Prof. Charles H. Graham (Queen's University, Canada). The cells were grown in RPMI 1640 media (Nissui Pharmaceutical Co., Tokyo, Japan) supplemented with 10% heat-inactivated FBS (Invitrogen) and 100 Uml penicillin-streptomycin (Gibco, Tokyo, Japan). For the experiments, cells were seeded at a density of 5×10^5 cells in 35 mm culture dishes. The cells were maintained at 37° C. in a normal atmosphere containing 5% CO2. The cells were stimulated by 1 μg/ml of P.g.-LPS (Invivogen, SanDiego, Calif., USA), expression of Gal-3 mRNA and Gal-3 levels in the culture media were measured at one, two, or three days after the stimulation.
HTR-8 cells were stimulated with P.g.-LPS (1 μg/ml) and N-Lac (10^−9 M and 10^−8 M), and the expression levels of Gal-3, TNF-α, COX-2 and IL-8 in the culture supernatants were measured by RT-PCR and Western-blotting.

HTR-8 cells [4] = assay: TNF-α stimulation of HTR-8 cells, Gal-3 production; assay type: cell-based, human; conditions: 10 ng/ml rhTNF-α; 2 days post-stimulation; P<0.01
Protocol: Gal-3 protein levels in the cell culture supernatants were analyzed by Human Galectin-3 Immunoassay (R&D Systems) as the manufacturer recommended. Statistical differences among the experimental groups were evaluated by analysis of T test using GraphPad Prism (version 6.0c, CA, USA) with the level of significance set at P<0.01**.
Effect of TNF-α, which is produced by P.g.-LPS stimulation, on Gal-3 production was studied.
Recombinant human TNF-α (rhTNF-α, purchased from R&D Systems (Minneapolis, Minn., USA)) was applied at 10 ng/ml to HTR-8 cells for 1, 2 or 3 days and the Gal-3 protein levels in the culture media were measured. The cell culture and measurement of the Gal-3 protein levels were performed in the same manner as in Example 6.

[5] = P.g.-LPS 1 μg/ml and N-Lac (10^−9 M and 10^−8 M)

## CC(=O)N[C@H]1C(O)O[C@H](CO)[C@@H](O[C@@H]2O[C@H](CO)[C@H](O)[C@H](O)[C@H]2O)[C@@H]1O (some centres unmarked) [N-Lac, N-acetyllactosamine]
[1]; p<0.05
  preterm birth induced by P.g.: significantly suppressed preterm birth
[1]; P.g./N-Lac group, NC 20, P.g. 18.3
  average gestational period: 20.7 days
[2]
  decrease of CD31 and expression of TNF-α, COX-2 and Gal-3 in placenta: improved
  denature and detachment of the amnion membrane, denature and necrosis of the placenta, increase of inflammatory cell infiltration: not observed
HTR-8 cells [3]; [5]
  Gal-3 expression upregulated by the P.g.-LPS stimulation: remarkably reduced
  TNF-α expression upregulated by the P.g.-LPS stimulation: remarkably reduced
HTR-8 cells [3]; incubation with N-Lac (10^−9 M and 10^−8 M)
  expression of TNF-α: suppressed

## TNF-α
HTR-8 cells [4]
  Gal-3 protein level in culture media: significant increased
